# In US20250035616A1, “Organoid Compositions” (SHIMADZU CORPORATION, priority 2023, published 2025):
# Key:
# primary human liver cell = tested on: primary human liver cell
# Procedure: In this Reference Example, 1 lot (lot name: HC4-24, XenoTech) of cultured primary human liver cells were cultured. The cells were rapidly thawed in a shaking water bath at 37° C., and were suspended in OptiTHAW Hepatocyte Isolation Kit (XenoTech) that had been preheated, followed by centrifugation at 100 g and room temperature for 5 minutes. The liver cells were suspended in HCM (Lonza) so that their density became 2.5×10^5 cells/cm^2, followed by seeding on 48-well Corning^RBioCoat™ Collagen I-coated Microplates (Corning). After the cells had been cultured for 48 hours, various tests were performed.
# (§1) Further, at the initial stage of the development of a new drug, the safety of the drug needs to be accurately evaluated by a hepatotoxicity evaluation test. Accordingly, an investigation was made on the potential of the HYDROX-cultured human liver organoid composition to be applied to the hepatotoxicity evaluation test.
# [1] = tested on: HYDROX-cultured human liver organoid composition
# Procedure: In this Example, the human liver organoid produced in Reference Example 1 was cultured with HYDROX (FIG. 1A) to produce a human liver organoid composition including the HYDROX, and its liver function was identified. The Matrigel-cultured human liver organoid produced in Reference Example 1 was treated with TrypLE Select so that the Matrigel was degraded. The resultant cell cluster was suspended in the medium for a human liver organoid, and was seeded on a HYDROX plate at 300 μL/well, followed by three-dimensional culture (HYDROX culture). The cell cluster was reseeded on a new HYDROX plate every 7 days. The HYDROX plate was produced as described below. In a 48-well adhesive plate, a HYDROX raw material polymer (Psar-PLLA) was mixed with 95% ethanol (Nacalai tesque) at a concentration of 10 mg/mL, and the mixture was warmed at 70° C. for 10 minutes. The dissolved polymer solution was dropped into a culture plate, and was dried for 8 hours or more to produce the human liver organoid composition including the HYDROX. In this Example and the following Examples, the human liver organoid composition including the HYDROX is referred to as “HYDROX-cultured human liver organoid composition.”
# as §1
SMILES,cell viability (primary human liver cell),cell viability [1]
Cc1c(C)c2c(c(C)c1O)CCC(C)(COc1ccc(CC3SC(=O)NC3=O)cc1)O2 (centres unmarked) [Troglitazone],the viability reduced in accordance with the concentration of each of the drugs,the viability reduced in accordance with the concentration of each of the drugs
CC(=O)Nc1ccc(O)cc1 [acetaminophen],–,the viability reduced in accordance with the concentration of each of the drugs
CCCCc1oc2ccccc2c1C(=O)c1cc(I)c(OCCN(CC)CC)c(I)c1 [amiodarone],the viability reduced in accordance with the concentration of each of the drugs,the viability reduced in accordance with the concentration of each of the drugs
